# Measurements published in ChEMBL document CHEMBL1129757 (J Med Chem, 1996).
# Target: T1, Melatonin receptor (Gallus gallus, UniProt P49288+P51050+P49285)
# Test: Binding affinity towards melatonin receptor in Chicken brain Experiment 1
row,SMILES,Ki
1,COc1ccc(CCNC(C)=O)cc1,> 100000 nM
2,COc1cccc(CCNC(C)=O)c1,958 nM

# Target: T1, Melatonin receptor
# Test: Binding affinity towards melatonin receptor in chicken brain.
row,SMILES,Ki
1,CCC(=O)NCCCc1cccc(OC)c1,5.6 nM
2,CCCCC(=O)NCCCCc1ccccc1OC,9190 nM
3,CCCC(=O)NCCc1ccc(OC)cc1,17900 nM
4,CCC(=O)NCCCCc1ccc(OC)cc1,1400 nM
5,CCCC(=O)NCCc1ccccc1OC,69 nM
6,CCCCC(=O)NCCCCc1cccc(OC)c1,9670 nM
7,CCC(=O)NCCCc1ccccc1OC,374 nM
8,CCC(=O)NCCCCc1cccc(OC)c1,119 nM
9,CCC(=O)NCc1cccc(OC)c1,22000 nM
10,CCCCC(=O)NCCc1ccc(OC)cc1,70800 nM
11,CCC(=O)NCCc1c[nH]c2ccc(OC)cc12,0.19 nM
12,COc1ccc(CCCNC(C)=O)cc1,14000 nM
13,CCCC(=O)NCCc1ccc(OC)c(OC)c1,59 nM
14,CCCC(=O)NCCCc1cccc(F)c1,434 nM
15,CCCC(=O)NCCCCc1ccc(OC)cc1,822 nM
16,COc1ccc(CCNC(C)=O)cc1OC,870 nM
17,COc1cccc(CCCNC(C)=O)c1,63 nM
18,CCCC(=O)NCCCCc1ccccc1OC,116 nM
19,CCCC(=O)NCc1cccc(OC)c1,13000 nM
20,COc1ccc(CCCCNC(C)=O)cc1,7300 nM
21,CCCC(=O)NCCCc1cccc(Br)c1,354 nM
22,CCC(=O)NCCc1ccccc1OC,135 nM
23,CCCC(=O)NCCCc1ccccc1OC,442 nM
24,COc1ccccc1CCCNC(C)=O,1430 nM

row,SMILES,Ki
1,CCCCC(=O)NCCc1cccc(OC)c1,741 nM
2,CCCC(=O)NCCc1cccc(OC)c1,40 nM
3,CCC(=O)NCCCc1cccc(F)c1,740 nM
4,CCC(=O)NCCCc1ccc(OC)cc1,2900 nM
5,COc1ccccc1CCNC(C)=O,573 nM
6,COc1cccc(CNC(C)=O)c1,57000 nM
7,CCC(=O)NCCCc1cccc(Br)c1,318 nM
8,CC(=O)NCCCc1cccc(Br)c1,852 nM
9,CCCCC(=O)NCCc1ccccc1OC,16000 nM
10,CCC(=O)NCCc1ccc(OC)c(OC)c1,130 nM
11,CCC(=O)NCCc1ccc(OC)cc1,19200 nM
12,CC(=O)NCCCc1cccc(F)c1,1920 nM
13,CCCCC(=O)NCCCCc1ccc(OC)cc1,7000 nM
14,COc1ccc2c(c1)c1c(n2C)CCCC1CNC(C)=O (stereo unspecified),0.97 nM
15,CCCC(=O)NCCCCc1cccc(OC)c1,208 nM
16,CCCC(=O)NCCCc1cccc(OC)c1,5.5 nM
17,CCC(=O)NCCc1cccc(OC)c1,62 nM
18,CCC(=O)NCCCCc1ccccc1OC,339 nM
19,CC(=O)NCCCc1cccc(Cl)c1,636 nM
20,CCCCC(=O)NCCCc1cccc(Cl)c1,15100 nM
21,CCCC(=O)NCCCc1ccc(OC)cc1,860 nM
22,CCCCC(=O)NCCCc1ccccc1OC,> 100000 nM
23,COc1ccc(Br)cc1CCN,8 nM
24,CCCC(=O)NCCCc1cccc(Cl)c1,113 nM

# Target: T1, Melatonin receptor
# Test: Binding affinity towards melatonin receptor in Chicken brain Experiment 2
row,SMILES,Ki
1,COc1ccc(CCNC(C)=O)cc1,> 1000 nM
